# According to patent US9452126B2, “Pharmaceutical/cosmetic compositions comprising hyaluronic acid and treatment of dermatological conditions therewith” (Galderma Research & Development, priority 2005, dated 2016):
# Target: T1, hyaluronidase of bovine origin (Bos taurus, UniProt Q2YDK3)
# T1 sequence (Q2YDK3 36-553): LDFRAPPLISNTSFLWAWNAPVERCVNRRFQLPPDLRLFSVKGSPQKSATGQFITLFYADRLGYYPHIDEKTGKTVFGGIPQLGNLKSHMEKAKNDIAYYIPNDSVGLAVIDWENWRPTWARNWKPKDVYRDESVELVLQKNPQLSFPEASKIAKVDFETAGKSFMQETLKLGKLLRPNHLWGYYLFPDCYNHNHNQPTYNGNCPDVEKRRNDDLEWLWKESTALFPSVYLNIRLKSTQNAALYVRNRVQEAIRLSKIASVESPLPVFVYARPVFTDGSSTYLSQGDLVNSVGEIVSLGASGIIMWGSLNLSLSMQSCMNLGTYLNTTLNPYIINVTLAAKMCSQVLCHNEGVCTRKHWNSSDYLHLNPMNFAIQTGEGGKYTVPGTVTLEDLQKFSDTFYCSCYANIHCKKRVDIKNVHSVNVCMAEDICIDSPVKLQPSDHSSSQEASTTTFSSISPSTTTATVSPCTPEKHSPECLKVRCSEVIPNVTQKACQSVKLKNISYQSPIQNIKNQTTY
# Experiment: Inhibitory effect on hyaluronidase activity of bovine origin (turbidimetry at 600 nm)
# Type: biochemical
# Settings: GLZ pre-incubated for 20 minutes at 37° C. with the enzyme
# Protocol: Determination of the IC50 of GLZ, with or without Pre-Incubation at 37° C.:
# GLZ, at various concentrations, is or is not pre-incubated for 20 minutes at 37° C. in the presence of the enzyme. The enzyme reaction is triggered by adding the hyaluronic acid solution (time T0). After incubation for 20 minutes, the non-hydrolyzed hyaluronic acid is precipitated by adding acidic bovine albumin solution.
# In order to verify that the pre-incubation step has no effect on the stability of the hyaluronidase, an aliquot of a solution of the enzyme is placed at 37° C. for 20 minutes. Another aliquot is conserved in an ice bath for 19 minutes, and is then incubated at 37° C. for 1 minute. A solution of hyaluronic acid is then added to each aliquot (T0). After incubation for 15, or 45 minutes, the non-hydrolyzed hyaluronic acid is precipitated by addition of acidic bovine albumin solution.
# Measurement of the Hyaluronidase Activity of Bovine Origin:
# After the precipitation step, the turbidimetry of the solutions is determined on a spectrophotometer at a wavelength of 600 nm. The optical density (OD) of these solutions is subtracted from the OD of a control solution of hyaluronic acid (of the same concentration) not hydrolyzed by the enzyme. This difference in OD, which is inversely proportional to the concentration of hyaluronic acid, is used to measure the activity of the hyaluronidase.
structure (smiles),measurement,value
"CC1(C)[C@@H](O[C@H]2O[C@H](C(=O)O)[C@@H](O)[C@H](O)[C@H]2O[C@@H]2O[C@H](C(=O)O)[C@@H](O)[C@H](O)[C@H]2O)CC[C@]2(C)[C@H]3C(=O)C=C4[C@@H]5C[C@@](C)(C(=O)O)CC[C@]5(C)CC[C@@]4(C)[C@]3(C)CC[C@@H]12 [GLZ, glycyrrhizin]",IC50,350 µM
